What was measured:
Type in all cases: cell-based
Hela = assay: Antiproliferative activity (MTS assay), Hela; conditions: Hela cells
Description: (§1) Antiproliferative effect is expressed as IC50 values in microMolar final concentration.
(§2) Cells were grown at 37° C. in a humidified atmosphere with 5% CO2 and 95% air. Cells were seeded in 96 well tissue culture plates.
(§3) Compound treatment started after overnight incubation of cells (TO). […] Compound was added to the plate in triplicate wells, and the plates were then incubated for 96 hours. DMSO (compounds diluents) was also included and added to the plate in control wells. Cell viability was then determined by MTS assay using CellTiter 96® AQueous non-radioactive cell proliferation assay system (Promega). A plate reader (Molecular Devices, Vmax) was used to read the optical densities, and the results were used to deduce concentration-response curves. […] The results were analyzed using linear regression software (GraphPad Prism 5; GraphPad Software Inc.).
(§4) The GI50 values (growth inhibitory activity) were determined to emphasize on the correction for the cell count at time zero; thus, the % inhibition of test drug were: [1−(T−T0)/(C−T0)]×100; and these value were used to plot the concentration-response curves, and then analyzed with linear regression software (GraphPad Prism 5).

MDA-MB-231 = assay: Antiproliferative activity (MTS assay), MDA-MB-231; conditions: MDA-MB-231 cells
Description: as §1, §2, §3, §4

K562 = assay: Antiproliferative activity (MTS assay), K562; conditions: K562 cells
Description: as §1, §2, §3, §4

MDA-MB-468 = assay: Antiproliferative activity (MTS assay), MDA-MB-468; conditions: MDA-MB-468 cells
Description: as §1, §2, §3, §4

COc1ccc(S(=O)(=O)c2cc(C)c(-c3csc(NC(=O)c4ccncc4)n3)c(C)c2)cc1 [Compound 129] was tested, and the IC50 (Hela; Homo sapiens, HeLa, 96 h) was 0.27 µM, the IC50 (MDA-MB-231; Homo sapiens, MDA-MB-231, 96 h) was 0.2 µM and the IC50 (K562; Homo sapiens, K562, 96 h) was 0.19 µM. The IC50 (MDA-MB-468; Homo sapiens, MDA-MB-468, 96 h) was 0.27 µM.

Cc1cc(OCC(O)CO)cc(C)c1-c1csc(NC(=O)c2ccncc2)n1 (stereo not shown) [Compound 97] was tested, and the IC50 (Hela; Homo sapiens, HeLa, 96 h) was 3.26 µM, the IC50 (MDA-MB-231; Homo sapiens, MDA-MB-231, 96 h) was 8.3 µM and the IC50 (K562; Homo sapiens, K562, 96 h) was 9.11 µM. For the same molecule, the IC50 (MDA-MB-468; Homo sapiens, MDA-MB-468, 96 h) was 3.11 µM.

COc1cc(-c2csc(NC(=O)c3ccncc3)n2)cc(OC)c1OC [Compound 27] was tested, and the IC50 (Hela; Homo sapiens, HeLa, 96 h) was over 10 µM, the IC50 (MDA-MB-231; Homo sapiens, MDA-MB-231, 96 h) was over 10 µM and the IC50 (K562; Homo sapiens, K562, 96 h) was over 10 µM. It also gave an IC50 (MDA-MB-468; Homo sapiens, MDA-MB-468, 96 h) of over 10 µM.

In the case of COc1cc(-c2csc(NC(=O)c3ccoc3)n2)ccc1O [Compound 51], the IC50 (Hela; Homo sapiens, HeLa, 96 h) is reported as over 10 µM, the IC50 (MDA-MB-231; Homo sapiens, MDA-MB-231, 96 h) is reported as over 10 µM and the IC50 (K562; Homo sapiens, K562, 96 h) is reported as over 10 µM. For the same molecule, the IC50 (MDA-MB-468; Homo sapiens, MDA-MB-468, 96 h) was over 10 µM.

Cc1cc(C)c(-c2csc(NC(=O)c3ccnc(Cl)c3)n2)c(C)c1 [Compound 81] was tested, and the IC50 (Hela; 96 hours) was 0.86 µM, the IC50 (MDA-MB-231; 96 hours) was 0.72 µM and the IC50 (K562; 96 hours) was 0.79 µM. For the same molecule, the IC50 (MDA-MB-468; 96 hours) was 0.82 µM.

COc1ccc(Oc2cc(C)c(-c3csc(NC(=O)c4ccnc([N+](=O)[O-])c4)n3)c(C)c2)cc1 [Compound 124] showed an IC50 (Hela; Homo sapiens, HeLa, 96 h) of 0.33 µM, an IC50 (MDA-MB-231; Homo sapiens, MDA-MB-231, 96 h) of 0.22 µM and an IC50 (K562; Homo sapiens, K562, 96 h) of 0.12 µM. The IC50 (MDA-MB-468; Homo sapiens, MDA-MB-468, 96 h) was 0.53 µM.

In the case of Cc1sc(NC(=O)c2ccc(C#N)cc2)nc1-c1ccccc1 [Compound 38], the IC50 (Hela; Homo sapiens, HeLa, 96 h) is reported as over 10 µM, the IC50 (MDA-MB-231; Homo sapiens, MDA-MB-231, 96 h) is reported as 5.68 µM and the IC50 (K562; Homo sapiens, K562, 96 h) is reported as over 10 µM. It also gave an IC50 (MDA-MB-468; Homo sapiens, MDA-MB-468, 96 h) of 3.4 µM.

Molecule O=C(Nc1nc(-c2ccc(O)cc2)cs1)c1ccncn1 [Compound 58] has an IC50 (Hela; Homo sapiens, HeLa, 96 h) of over 10 µM, an IC50 (MDA-MB-231; Homo sapiens, MDA-MB-231, 96 h) of over 10 µM and an IC50 (K562; Homo sapiens, K562, 96 h) of over 10 µM. For the same molecule, the IC50 (MDA-MB-468; Homo sapiens, MDA-MB-468, 96 h) was over 10 µM.

In the case of COc1cc(C(=O)Nc2nc(-c3c(C)cc(C)cc3C)cs2)ccn1 [Compound 86], the IC50 (Hela; Homo sapiens, HeLa, 96 h) is reported as 1.72 µM, the IC50 (MDA-MB-231; Homo sapiens, MDA-MB-231, 96 h) is reported as 0.77 µM and the IC50 (K562; Homo sapiens, K562, 96 h) is reported as 0.69 µM. The IC50 (MDA-MB-468; Homo sapiens, MDA-MB-468, 96 h) was 2.51 µM.

COc1ccc([S+]([O-])c2cc(C)c(-c3csc(NC(=O)c4ccncc4)n3)c(C)c2)cc1 (stereo not shown) [Compound 130] was tested, and the IC50 (Hela; Homo sapiens, HeLa, 96 h) was 0.18 µM, the IC50 (MDA-MB-231; Homo sapiens, MDA-MB-231, 96 h) was 0.09 µM and the IC50 (K562; Homo sapiens, K562, 96 h) was 0.08 µM. The IC50 (MDA-MB-468; Homo sapiens, MDA-MB-468, 96 h) was 0.14 µM.

O=C(Nc1nc(-c2ccc(O)cc2)cs1)c1ccccn1 [Compound 59] gave an IC50 (Hela; Homo sapiens, HeLa, 96 h) of over 10 µM, an IC50 (MDA-MB-231; Homo sapiens, MDA-MB-231, 96 h) of over 10 µM and an IC50 (K562; Homo sapiens, K562, 96 h) of over 10 µM. The IC50 (MDA-MB-468; Homo sapiens, MDA-MB-468, 96 h) was over 10 µM.

With Cc1ccc(-c2nc(NC(=O)c3cccnc3)sc2C)cc1 [Compound 31] the IC50 (Hela; Homo sapiens, HeLa, 96 h) was over 10 µM, the IC50 (MDA-MB-231; Homo sapiens, MDA-MB-231, 96 h) was over 10 µM and the IC50 (K562; Homo sapiens, K562, 96 h) was over 10 µM. For the same molecule, the IC50 (MDA-MB-468; Homo sapiens, MDA-MB-468, 96 h) was over 10 µM.

Molecule COc1ccc(-c2nc(NC(=O)c3ccncc3)sc2C)cc1 [Compound 10] has an IC50 (Hela; Homo sapiens, HeLa, 96 h) of over 10 µM, an IC50 (MDA-MB-231; Homo sapiens, MDA-MB-231, 96 h) of 8.03 µM and an IC50 (K562; Homo sapiens, K562, 96 h) of over 10 µM. It also gave an IC50 (MDA-MB-468; Homo sapiens, MDA-MB-468, 96 h) of 8.89 µM.

CSc1cc(C)c(-c2csc(NC(=O)c3ccncc3)n2)c(C)c1 [Compound 125] showed an IC50 (Hela; Homo sapiens, HeLa, 96 h) of 0.27 µM, an IC50 (MDA-MB-231; Homo sapiens, MDA-MB-231, 96 h) of 0.16 µM and an IC50 (K562; Homo sapiens, K562, 96 h) of 0.18 µM. It also gave an IC50 (MDA-MB-468; Homo sapiens, MDA-MB-468, 96 h) of 0.25 µM.

For COc1cc(-c2csc(NC(=O)c3ccsc3)n2)ccc1O [Compound 49], the IC50 (Hela; Homo sapiens, HeLa, 96 h) was over 10 µM, the IC50 (MDA-MB-231; Homo sapiens, MDA-MB-231, 96 h) was over 10 µM and the IC50 (K562; Homo sapiens, K562, 96 h) was over 10 µM. It also gave an IC50 (MDA-MB-468; Homo sapiens, MDA-MB-468, 96 h) of over 10 µM.

For Cc1cc(C)c(-c2csc(NC(=O)Cc3ccncc3)n2)c(C)c1 [Compound 93], the IC50 (Hela; Homo sapiens, HeLa, 96 h) was 0.62 µM, the IC50 (MDA-MB-231; Homo sapiens, MDA-MB-231, 96 h) was 0.31 µM and the IC50 (K562; Homo sapiens, K562, 96 h) was 0.38 µM. For the same molecule, the IC50 (MDA-MB-468; Homo sapiens, MDA-MB-468, 96 h) was 0.3 µM.

Cc1cc(C)c(-c2csc(NC(=O)c3ccnc(N(C)C)c3)n2)c(C)c1 [Compound 92] gave an IC50 (Hela; Homo sapiens, HeLa, 96 h) of over 10 µM, an IC50 (MDA-MB-231; Homo sapiens, MDA-MB-231, 96 h) of 2.21 µM and an IC50 (K562; Homo sapiens, K562, 96 h) of 0.45 µM. For the same molecule, the IC50 (MDA-MB-468; Homo sapiens, MDA-MB-468, 96 h) was 3.29 µM.

Cc1sc(NC(=O)c2ccccn2)nc1-c1ccccc1 [Compound 19] gave an IC50 (Hela; Homo sapiens, HeLa, 96 h) of over 10 µM, an IC50 (MDA-MB-231; Homo sapiens, MDA-MB-231, 96 h) of 6.75 µM and an IC50 (K562; Homo sapiens, K562, 96 h) of over 10 µM. The IC50 (MDA-MB-468; Homo sapiens, MDA-MB-468, 96 h) was 6.85 µM.

In the case of COCCCOc1cc(C)c(-c2csc(NC(=O)c3ccncc3)n2)c(C)c1 [Compound 110], the IC50 (Hela; Homo sapiens, HeLa, 96 h) is reported as 0.11 µM, the IC50 (MDA-MB-231; Homo sapiens, MDA-MB-231, 96 h) is reported as 0.09 µM and the IC50 (K562; Homo sapiens, K562, 96 h) is reported as 0.1 µM. For the same molecule, the IC50 (MDA-MB-468; Homo sapiens, MDA-MB-468, 96 h) was 0.13 µM.

Cc1cc(C)c(-c2csc(NC(=O)c3ccncn3)n2)c(C)c1 [Compound 5] was tested, and the IC50 (Hela; Homo sapiens, HeLa, 96 h) was over 10 µM, the IC50 (MDA-MB-231; Homo sapiens, MDA-MB-231, 96 h) was 7.37 µM and the IC50 (K562; Homo sapiens, K562, 96 h) was 5.74 µM. The IC50 (MDA-MB-468; Homo sapiens, MDA-MB-468, 96 h) was 4.57 µM.

Work on COc1ccc(-c2csc(NC(=O)c3ccnc(Cl)c3)n2)cc1F [Compound 63] yielded an IC50 (Hela; Homo sapiens, HeLa, 96 h) of over 10 µM, an IC50 (MDA-MB-231; Homo sapiens, MDA-MB-231, 96 h) of over 10 µM and an IC50 (K562; Homo sapiens, K562, 96 h) of over 10 µM. The IC50 (MDA-MB-468; Homo sapiens, MDA-MB-468, 96 h) was over 10 µM.

Cc1cc(OCC(C)O)cc(C)c1-c1csc(NC(=O)c2ccncc2)n1 (stereo not shown) [Compound 94] showed an IC50 (Hela; Homo sapiens, HeLa, 96 h) of 0.23 µM, an IC50 (MDA-MB-231; Homo sapiens, MDA-MB-231, 96 h) of 0.3 µM and an IC50 (K562; Homo sapiens, K562, 96 h) of 0.23 µM. It also gave an IC50 (MDA-MB-468; Homo sapiens, MDA-MB-468, 96 h) of 0.39 µM.

Work on CCOc1cc(C)c(-c2csc(NC(=O)c3ccnc(F)c3)n2)c(C)c1 [Compound 70] yielded an IC50 (Hela; Homo sapiens, HeLa, 96 h) of 0.03 µM, an IC50 (MDA-MB-231; Homo sapiens, MDA-MB-231, 96 h) of 0.11 µM and an IC50 (K562; Homo sapiens, K562, 96 h) of 0.16 µM. The IC50 (MDA-MB-468; Homo sapiens, MDA-MB-468, 96 h) was 0.21 µM.

Molecule Cc1cc(O)ccc1-c1csc(NC(=O)c2ccc(C#N)cc2)n1 [Compound 61] has an IC50 (Hela; Homo sapiens, HeLa, 96 h) of over 10 µM, an IC50 (MDA-MB-231; Homo sapiens, MDA-MB-231, 96 h) of over 10 µM and an IC50 (K562; Homo sapiens, K562, 96 h) of over 10 µM. The IC50 (MDA-MB-468; Homo sapiens, MDA-MB-468, 96 h) was over 10 µM.

Molecule COc1ccc(-c2csc(NC(=O)c3cccnc3)n2)c(OC)c1 [Compound 15] has an IC50 (Hela; Homo sapiens, HeLa, 96 h) of over 10 µM, an IC50 (MDA-MB-231; Homo sapiens, MDA-MB-231, 96 h) of over 10 µM and an IC50 (K562; Homo sapiens, K562, 96 h) of over 10 µM. For the same molecule, the IC50 (MDA-MB-468; Homo sapiens, MDA-MB-468, 96 h) was over 10 µM.
